The results in this text go back to US8710065B2, “Tricyclic inhibitors of kinases” (AbbVie Inc., priority 2011, dated 2014).

T1 sequence (P30291 whole entry): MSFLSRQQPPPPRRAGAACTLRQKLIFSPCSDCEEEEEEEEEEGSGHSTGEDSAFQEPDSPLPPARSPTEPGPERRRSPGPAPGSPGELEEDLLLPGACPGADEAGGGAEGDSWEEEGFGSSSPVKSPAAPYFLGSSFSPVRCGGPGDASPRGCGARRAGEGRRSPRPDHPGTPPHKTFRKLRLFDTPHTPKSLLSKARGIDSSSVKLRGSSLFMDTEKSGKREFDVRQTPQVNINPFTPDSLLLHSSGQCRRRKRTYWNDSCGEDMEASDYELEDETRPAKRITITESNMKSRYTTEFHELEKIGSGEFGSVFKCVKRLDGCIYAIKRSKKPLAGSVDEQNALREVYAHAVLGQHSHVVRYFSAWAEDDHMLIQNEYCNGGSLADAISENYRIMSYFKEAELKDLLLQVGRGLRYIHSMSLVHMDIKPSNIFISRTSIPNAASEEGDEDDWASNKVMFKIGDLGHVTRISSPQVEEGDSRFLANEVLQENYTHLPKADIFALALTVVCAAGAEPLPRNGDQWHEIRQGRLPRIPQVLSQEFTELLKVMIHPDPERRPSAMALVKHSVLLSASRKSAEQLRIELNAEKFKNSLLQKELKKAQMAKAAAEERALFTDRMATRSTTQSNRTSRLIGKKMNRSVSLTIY

This assay has as its target T1, GST-tagged-Wee1 kinase (Homo sapiens, UniProt P30291).
T1 construct: purchased Carnabio (Carna Biosciences) 05-177
Briefly: Wee1 time-resolved fluorescence equilibrium binding assay (displacement of Oregon Green-labeled ATP-competitive kinase probe). Conditions: read-out: Wee-1 inhibition (Ki). The gist of the method:
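Ki values derive from competitive displacement, under equilibrium, of a fast-reversible ATP-site Oregon Green kinase probe from GST-tagged Wee1, detected by time-resolved fluorescence.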
One may read the Ki as the dissociation constant of the complex between target and ligand, obtained from inhibition or displacement. As for `O=c1c2cnc(Nc3ccc4c(c3)CN(CC(F)F)CC43CC3)nc2n2ccnc2n1-c1c(F)cccc1Cl` [Example 224, 6-(2-chloro-6-fluorophenyl)-2-{[2′-(2,2-difluoroethyl)-2′,3′-dihydro-1′H-spiro[cyclopropane-1,4′-isoquinolin]-7′-yl]amino}imidazo[1,2-a]pyrimido[5,4-e]pyrimidin-5(6H)-one], the Ki is less than 10 nM.

`O=c1c2cnc(Nc3ccc4c(c3)CN(CCF)CC43CC3)nc2n2ccnc2n1-c1c(F)cccc1Cl` [Example 225, 6-(2-chloro-6-fluorophenyl)-2-{[2′-(2-fluoroethyl)-2′,3′-dihydro-1′H-spiro[cyclopropane-1,4′-isoquinolin]-7′-yl]amino}imidazo[1,2-a]pyrimido[5,4-e]pyrimidin-5(6H)-one]: the Ki is less than 10 nM.

As for `CCN(CC)C1Cc2ccc(Nc3ncc4c(=O)n(-c5c(F)cccc5Cl)c5nccn5c4n3)cc2C1` (centres unmarked) [Example 226, 6-(2-chloro-6-fluorophenyl)-2-{[2-(diethylamino)-2,3-dihydro-1H-inden-5-yl]amino}imidazo[1,2-a]pyrimido[5,4-e]pyrimidin-5(6H)-one], the Ki is less than 10 nM.

`O=c1c2cnc(Nc3ccc4c(c3)CC(NC3CC3)C4)nc2n2ccnc2n1-c1c(F)cccc1Cl` (centres unmarked) [Example 227, 6-(2-chloro-6-fluorophenyl)-2-{[2-(cyclopropylamino)-2,3-dihydro-1H-inden-5-yl]amino}imidazo[1,2-a]pyrimido[5,4-e]pyrimidin-5(6H)-one]: the Ki is less than 10 nM.

In the case of `O=c1c2cnc(Nc3ccc4c(c3)CNCC43CC3)nc2n2ccnc2n1-c1c(F)cccc1Cl` [Example 228, 6-(2-chloro-6-fluorophenyl)-2-(2′,3′-dihydro-1′H-spiro[cyclopropane-1,4′-isoquinolin]-7′-ylamino)imidazo[1,2-a]pyrimido[5,4-e]pyrimidin-5(6H)-one], the Ki is less than 10 nM.

For the compound `O=c1c2cnc(Nc3ccc(N4CCC(N5CCCCC5)CC4)cc3)nc2n2ccnc2n1-c1ccccc1Cl` [Example 229, 2-{[4-(1,4′-bipiperidin-1′-yl)phenyl]amino}-6-(2-chlorophenyl)imidazo[1,2-a]pyrimido[5,4-e]pyrimidin-5(6H)-one], the Ki is less than 10 nM.

Turning to `CN(C)[C@@H]1CCN(c2ccc(Nc3ncc4c(=O)n(-c5ccccc5Cl)c5nccn5c4n3)cc2)C1` [Example 230, 6-(2-chlorophenyl)-2-({4-[(3R)-3-(dimethylamino)pyrrolidin-1-yl]phenyl}amino)imidazo[1,2-a]pyrimido[5,4-e]pyrimidin-5(6H)-one], the Ki is less than 10 nM.

Regarding `O=c1c2cnc(Nc3ccc(N4CCCC(C(F)(F)F)C4)cc3)nc2n2ccnc2n1-c1ccccc1Cl` (centres unmarked) [Example 231, 6-(2-chlorophenyl)-2-({4-[3-(trifluoromethyl)piperidin-1-yl]phenyl}amino)imidazo[1,2-a]pyrimido[5,4-e]pyrimidin-5(6H)-one], the Ki was in the range of 10 to 100 nM.

As to `N#CCCN1CCN(c2ccc(Nc3ncc4c(=O)n(-c5ccccc5Cl)c5nccn5c4n3)cc2)CC1` [Example 232, 3-[4-(4-{[6-(2-chlorophenyl)-5-oxo-5,6-dihydroimidazo[1,2-a]pyrimido[5,4-e]pyrimidin-2-yl]amino}phenyl)piperazin-1-yl]propanenitrile], the Ki was in the range of 10 to 100 nM.

In the case of `N#CCCN(c1ccc(Nc2ncc3c(=O)n(-c4ccccc4Cl)c4nccn4c3n2)cc1)C1CC1` [Example 233, 3-[(4-{[6-(2-chlorophenyl)-5-oxo-5,6-dihydroimidazo[1,2-a]pyrimido[5,4-e]pyrimidin-2-yl]amino}phenyl)(cyclopropyl)amino]propanenitrile], the Ki lay within 10 to 100 nM.

For the compound `CN(C)CCNc1ccc(Nc2ncc3c(=O)n(-c4ccccc4Cl)c4nccn4c3n2)cc1` [Example 234, 6-(2-chlorophenyl)-2-[(4-{[2-(dimethylamino)ethyl]amino}phenyl)amino]imidazo[1,2-a]pyrimido[5,4-e]pyrimidin-5(6H)-one], the Ki is less than 10 nM.

For `NC(=O)C1CCN(c2ccc(Nc3ncc4c(=O)n(-c5ccccc5Cl)c5nccn5c4n3)cc2)CC1` [Example 235, 1-(4-{[6-(2-chlorophenyl)-5-oxo-5,6-dihydroimidazo[1,2-a]pyrimido[5,4-e]pyrimidin-2-yl]amino}phenyl)piperidine-4-carboxamide], the Ki was less than 10 nM.

With `O=c1c2cnc(Nc3ccc(N4CCC(N5CCOCC5)CC4)cc3)nc2n2ccnc2n1-c1ccccc1Cl` [Example 236, 6-(2-chlorophenyl)-2-({4-[4-(morpholin-4-yl)piperidin-1-yl]phenyl}amino)imidazo[1,2-a]pyrimido[5,4-e]pyrimidin-5(6H)-one], the Ki was less than 10 nM.

`CN(C)C1CCN(C(=O)c2ccc(Nc3ncc4c(=O)n(-c5c(Cl)cccc5Cl)c5nccn5c4n3)cc2)CC1` [Example 237, 6-(2,6-dichlorophenyl)-2-[(4-{[4-(dimethylamino)piperidin-1-yl]carbonyl}phenyl)amino]imidazo[1,2-a]pyrimido[5,4-e]pyrimidin-5(6H)-one]: the Ki was less than 10 nM.

Regarding `CN(C)C1CCC(NC(=O)c2ccc(Nc3ncc4c(=O)n(-c5c(Cl)cccc5Cl)c5nccn5c4n3)cc2)CC1` (centres unmarked) [Example 238, 4-{[6-(2,6-dichlorophenyl)-5-oxo-5,6-dihydroimidazo[1,2-a]pyrimido[5,4-e]pyrimidin-2-yl]amino}-N-[4-(dimethylamino)cyclohexyl]benzamide], the Ki was less than 10 nM.

For `CN1CCC(NC(=O)c2ccc(Nc3ncc4c(=O)n(-c5c(Cl)cccc5Cl)c5nccn5c4n3)cc2)CC1` [Example 239, 4-{[6-(2,6-dichlorophenyl)-5-oxo-5,6-dihydroimidazo[1,2-a]pyrimido[5,4-e]pyrimidin-2-yl]amino}-N-(1-methylpiperidin-4-yl)benzamide], the Ki was less than 10 nM.

As for `O=c1c2cnc(Nc3ccc(N4CCC(N5CCCC5)CC4)cc3)nc2n2ccnc2n1-c1c(Cl)cccc1Cl` [Example 240, 6-(2,6-dichlorophenyl)-2-({4-[4-(pyrrolidin-1-yl)piperidin-1-yl]phenyl}amino)imidazo[1,2-a]pyrimido[5,4-e]pyrimidin-5(6H)-one], the Ki is less than 10 nM.

Turning to `CC(=O)N1Cc2cc(Nc3ncc4c(=O)n(-c5c(F)cccc5Cl)c5nccn5c4n3)ccc2C2(CC2)C1` [Example 241, 2-[(2′-acetyl-2′,3′-dihydro-1′H-spiro[cyclopropane-1,4′-isoquinolin]-7′-yl)amino]-6-(2-chloro-6-fluorophenyl)imidazo[1,2-a]pyrimido[5,4-e]pyrimidin-5(6H)-one], the Ki is less than 10 nM.

Take `O=C(C1CC1)N1Cc2cc(Nc3ncc4c(=O)n(-c5c(F)cccc5Cl)c5nccn5c4n3)ccc2C2(CC2)C1` [Example 242, 6-(2-chloro-6-fluorophenyl)-2-{[2′-(cyclopropylcarbonyl)-2′,3′-dihydro-1′H-spiro[cyclopropane-1,4′-isoquinolin]-7′-yl]amino}imidazo[1,2-a]pyrimido[5,4-e]pyrimidin-5(6H)-one]: the Ki was less than 10 nM.

With `CS(=O)(=O)N1Cc2cc(Nc3ncc4c(=O)n(-c5c(F)cccc5Cl)c5nccn5c4n3)ccc2C2(CC2)C1` [Example 243, 6-(2-chloro-6-fluorophenyl)-2-{[2′-(methylsulfonyl)-2′,3′-dihydro-1′H-spiro[cyclopropane-1,4′-isoquinolin]-7′-yl]amino}imidazo[1,2-a]pyrimido[5,4-e]pyrimidin-5(6H)-one], the Ki was less than 10 nM.
